Assays:
U-698-M [1] = experiment: Bliss excess, mean over the matrix (fraction); higher = more synergy; details: U-[…], B-Cell Non-Hodgkin's Lymphoma
In short: (§1)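 After 24 hours at 37°C and 5% CO2 in 1536-well plates, cells in DMEM/F12 or RPMI plus 10% FBS received two-drug dose matrices for 72 hours. Viability came from CellTiter-Glo 2.0 luminescence and was scaled as inhibition, anchored at 0 by vehicle wells and at 1 by blank wells. Combination Emax is taken as the second-highest inhibition in the matrix, and Bliss excess as the observed combination effect less EA + EB − EA·EB, with EA and EB the single-agent effects.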

U-698-M [2] = experiment: combination Emax (second highest fraction inhibited in the dose matrix, 72 h); higher = more inhibition; details: B-Cell Non-Hodgkin's Lymphoma
In short: as §1

[3] = first compound max 1 µM, partner max 1 µM, 7x7
[4] = first compound max 10 µM, partner max 1 µM, 7x7
[5] = first compound max 1 µM, partner max 1 µM
[6] = first compound max 10 µM, partner max 0.3 µM, 7x7
[7] = first compound max 1 µM, partner max 10 µM, 7x7
[8] = first compound max 1 µM, partner max 0.3 µM
[9] = first compound max 10 µM, partner max 5 µM, 7x7
[10] = first compound max 1 µM, partner max 10 µM
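Wherever Bliss excess, mean over the matrix is given: after 72 h of two-drug dosing.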

## C[C@@H](c1ccc2nccn2c1)n1nnc2ncc(-c3cnn(C)c3)nc21 [Savolitinib] + CC1(C)CCC(CN2CCN(c3ccc(C(=O)NS(=O)(=O)c4ccc(NCC5CCOCC5)c([N+](=O)[O-])c4)c(Oc4cnc5[nH]ccc5c4)c3)CC2)=C(c2ccc(Cl)cc2)C1 [Venetoclax]
U-698-M [1]; [3]
  Bliss excess: -0.0313
U-698-M [2]; [3]
  combination Emax: 0.191

## CC(=O)c1c(C)c2cnc(Nc3ccc(N4CCNCC4)cn3)nc2n(C2CCCC2)c1=O [Palbociclib] + Cc1c2c(nn1C)CSCc1cc(n(C)n1)CSc1cc(c3ccccc3c1)OCCCc1c(C(=O)O)n(C)c3c-2c(Cl)ccc13 [AZD5991]
U-698-M [1]; [4]
  Bliss excess: -0.0228
U-698-M [2]; [4]
  combination Emax: 0.98

## CC1(C)CCC(CN2CCN(c3ccc(C(=O)NS(=O)(=O)c4ccc(NCC5CCOCC5)c([N+](=O)[O-])c4)c(Oc4cnc5[nH]ccc5c4)c3)CC2)=C(c2ccc(Cl)cc2)C1 [Venetoclax] + C=CCn1c(=O)c2cnc(Nc3ccc(N4CCN(C)CC4)cc3)nc2n1-c1cccc(C(C)(C)O)n1 [AZD1775]
U-698-M [1]; [5]
  Bliss excess: 0.109
U-698-M [2]; [5]
  combination Emax: 0.978

## CN(C)CCCOc1ccc(-c2ccc3ncc4c(c3c2)n(C2CCOCC2)c(=O)n4C)cn1 [AZD0156] + C=CCn1c(=O)c2cnc(Nc3ccc(N4CCN(C)CC4)cc3)nc2n1-c1cccc(C(C)(C)O)n1 [AZD1775]
U-698-M [1]; [5]
  Bliss excess: -0.0399
U-698-M [2]; [5]
  combination Emax: 0.984

## Cn1cnc2c(F)c(Nc3ccc(Br)cc3Cl)c(C(=O)NOCCO)cc21 [Selumetinib] + CC(C)n1c(=O)n(C)c2cnc3cc(F)c(-c4ccc(OCCCN5CCCCC5)nc4)cc3c21 [AZD1390]
U-698-M [1]; [6]
  Bliss excess: -0.0149
U-698-M [2]; [6]
  combination Emax: 0.109

## CCN(CCO)CCCOc1ccc2c(Nc3cc(CC(=O)Nc4cccc(F)c4)[nH]n3)ncnc2c1 [AZD2811] + O=C(c1cc(Cc2n[nH]c(=O)c3ccccc23)ccc1F)N1CCN(C(=O)C2CC2)CC1 [Olaparib]
U-698-M [1]; [7]
  Bliss excess: 0.0384
U-698-M [2]; [7]
  combination Emax: 0.479

## COc1nnc2ccc(N3CCC(c4ccc(OCCN5CCN(C)C(=O)[C@H]5C)cc4)CC3)nn12 [AZD5153] + Cc1c2c(nn1C)CSCc1cc(n(C)n1)CSc1cc(c3ccccc3c1)OCCCc1c(C(=O)O)n(C)c3c-2c(Cl)ccc13 [AZD5991]
U-698-M [1]; [3]
  Bliss excess: -0.0271
U-698-M [2]; [3]
  combination Emax: 0.998

## CN(CCO)CC[C@H](CSc1ccccc1)Nc1ccc(S(=O)(=O)NC(=O)c2ccc(N3CCC([C@@H](O)c4ccccc4-c4ccc(Cl)cc4)CC3)cc2)cc1S(=O)(=O)C(F)(F)F [AZD4320] + Cc1cc2ncnn2cc1Nc1ncc2c(n1)n(C1CCOCC1)c(=O)n2C [AZD7648]
U-698-M [1]; [7]
  Bliss excess: -0.016
U-698-M [2]; [7]
  combination Emax: 0.415

## O=C(c1cc(Cc2n[nH]c(=O)c3ccccc23)ccc1F)N1CCN(C(=O)C2CC2)CC1 [Olaparib] + CC1(C)CCC(CN2CCN(c3ccc(C(=O)NS(=O)(=O)c4ccc(NCC5CCOCC5)c([N+](=O)[O-])c4)c(Oc4cnc5[nH]ccc5c4)c3)CC2)=C(c2ccc(Cl)cc2)C1 [Venetoclax]
U-698-M [1]; [4]
  Bliss excess: -0.0064
U-698-M [2]; [4]
  combination Emax: 0.192

## Cc1cc2ncnn2cc1Nc1ncc2c(n1)n(C1CCOCC1)c(=O)n2C [AZD7648] + CN(C)CCCOc1ccc(-c2ccc3ncc4c(c3c2)n(C2CCOCC2)c(=O)n4C)cn1 [AZD0156]
U-698-M [1]; [4]
  Bliss excess: 0.0015
U-698-M [2]; [4]
  combination Emax: 0.488

## CN(CCO)CC[C@H](CSc1ccccc1)Nc1ccc(S(=O)(=O)NC(=O)c2ccc(N3CCC([C@@H](O)c4ccccc4-c4ccc(Cl)cc4)CC3)cc2)cc1S(=O)(=O)C(F)(F)F [AZD4320] + CS(=O)(=O)CCNCc1ccc(-c2ccc3ncnc(Nc4ccc(OCc5cccc(F)c5)c(Cl)c4)c3c2)o1 [Lapatinib]
U-698-M [1]; [7]
  Bliss excess: -0.0415
U-698-M [2]; [7]
  combination Emax: 0.551

## Cc1c2c(nn1C)CSCc1cc(n(C)n1)CSc1cc(c3ccccc3c1)OCCCc1c(C(=O)O)n(C)c3c-2c(Cl)ccc13 [AZD5991] + CC(=O)O[C@H]1C(=O)[C@@]2(C)[C@H]([C@H](OC(=O)c3ccccc3)[C@]3(O)C[C@H](OC(=O)[C@H](O)[C@@H](NC(=O)c4ccccc4)c4ccccc4)C(C)=C1C3(C)C)[C@]1(OC(C)=O)CO[C@@H]1C[C@@H]2O [Paclitaxel]
U-698-M [1]; first compound max 1 µM, partner max 3 µM, 7x7
  Bliss excess: -0.0123
U-698-M [2]; first compound max 1 µM, partner max 3 µM, 7x7, may be a limit of the assay
  combination Emax: 1

## NC1(C(=O)N[C@@H](CCO)c2ccc(Cl)cc2)CCN(c2ncnc3[nH]ccc23)CC1 [Capivasertib] + CC(C)n1c(=O)n(C)c2cnc3cc(F)c(-c4ccc(OCCCN5CCCCC5)nc4)cc3c21 [AZD1390]
U-698-M [1]; [6]
  Bliss excess: 0.0024
U-698-M [2]; [6]
  combination Emax: 0.507

## CC1(C)CCC(CN2CCN(c3ccc(C(=O)NS(=O)(=O)c4ccc(NCC5CCOCC5)c([N+](=O)[O-])c4)c(Oc4cnc5[nH]ccc5c4)c3)CC2)=C(c2ccc(Cl)cc2)C1 [Venetoclax] + CCN(CCO)CCCOc1ccc2c(Nc3cc(CC(=O)Nc4cccc(F)c4)[nH]n3)ncnc2c1 [AZD2811]
U-698-M [1]; [3]
  Bliss excess: -0.0213
U-698-M [2]; [3]
  combination Emax: 0.6

## C=CCn1c(=O)c2cnc(Nc3ccc(N4CCN(C)CC4)cc3)nc2n1-c1cccc(C(C)(C)O)n1 [AZD1775] + Nc1ccn([C@@H]2O[C@H](CO)[C@@H](O)C2(F)F)c(=O)n1 [Gemcitabine]
U-698-M [1]; [8]
  Bliss excess: 0.116
U-698-M [2]; [8]
  combination Emax: 0.956

## CN(CCO)CC[C@H](CSc1ccccc1)Nc1ccc(S(=O)(=O)NC(=O)c2ccc(N3CCC([C@@H](O)c4ccccc4-c4ccc(Cl)cc4)CC3)cc2)cc1S(=O)(=O)C(F)(F)F [AZD4320] + C=CCn1c(=O)c2cnc(Nc3ccc(N4CCN(C)CC4)cc3)nc2n1-c1cccc(C(C)(C)O)n1 [AZD1775]
U-698-M [1]; [5]
  Bliss excess: -0.0221
U-698-M [2]; [5]
  combination Emax: 0.931

## Cc1nc(-c2cn3c(n2)-c2ccc(-c4cnn(C(C)(C)C(N)=O)c4)cc2OCC3)n(C(C)C)n1 [Taselisib] + O=C(Nc1ccc2[nH]nc(-c3ccncc3)c2c1)[C@@H]1CCN(CC(=O)N2CCN(c3ccc(-c4ncccn4)cc3)CC2)C1 [SCH772984]
U-698-M [1]; [9]
  Bliss excess: -0.0189
U-698-M [2]; [9]
  combination Emax: 0.606

## CN(CCO)CC[C@H](CSc1ccccc1)Nc1ccc(S(=O)(=O)NC(=O)c2ccc(N3CCC([C@@H](O)c4ccccc4-c4ccc(Cl)cc4)CC3)cc2)cc1S(=O)(=O)C(F)(F)F [AZD4320] + CCN(CCO)CCCOc1ccc2c(Nc3cc(CC(=O)Nc4cccc(F)c4)[nH]n3)ncnc2c1 [AZD2811]
U-698-M [1]; [3]
  Bliss excess: -0.0275
U-698-M [2]; [3]
  combination Emax: 0.138

## CN(C)CCCOc1ccc(-c2ccc3ncc4c(c3c2)n(C2CCOCC2)c(=O)n4C)cn1 [AZD0156] + C[C@@H]1COCCN1C2=NC(=NC(=C2)C3(CC3)[S@](=N)(=O)C)C4=C5C=CNC5=NC=C4 [AZD6738]
U-698-M [1]; [7]
  Bliss excess: 0.0473
U-698-M [2]; [7]
  combination Emax: 0.978

## C=CCn1c(=O)c2cnc(Nc3ccc(N4CCN(C)CC4)cc3)nc2n1-c1cccc(C(C)(C)O)n1 [AZD1775] + O=C(c1cc(Cc2n[nH]c(=O)c3ccccc23)ccc1F)N1CCN(C(=O)C2CC2)CC1 [Olaparib]
U-698-M [1]; [10]
  Bliss excess: -0.0077
U-698-M [2]; [10]
  combination Emax: 0.967

Reference: the supplement of paper PMC11061612
